Measured values taken from ChEMBL document CHEMBL1201862, “PubChem BioAssay data set” (2004).
Calls of active or inactive are those of the source.

Columns and labels:
[1] = biological target: Phosphoethanolamine/phosphocholine phosphatase (Homo sapiens, UniProt Q8TCT1); experiment: SAR assay for compounds that inhibit PHOSPHO1. [Related pubchem assays (depositor defined):AID1545, AID1565, AID1574]
[2] = biological target: T1, Mannose-6-phosphate isomerase (Homo sapiens, UniProt P34949); experiment: PMI enzyme inhibitors, confirmation, biochemical, fluorescence intensity (AID 1535)
T1 sequence (P34949 whole entry): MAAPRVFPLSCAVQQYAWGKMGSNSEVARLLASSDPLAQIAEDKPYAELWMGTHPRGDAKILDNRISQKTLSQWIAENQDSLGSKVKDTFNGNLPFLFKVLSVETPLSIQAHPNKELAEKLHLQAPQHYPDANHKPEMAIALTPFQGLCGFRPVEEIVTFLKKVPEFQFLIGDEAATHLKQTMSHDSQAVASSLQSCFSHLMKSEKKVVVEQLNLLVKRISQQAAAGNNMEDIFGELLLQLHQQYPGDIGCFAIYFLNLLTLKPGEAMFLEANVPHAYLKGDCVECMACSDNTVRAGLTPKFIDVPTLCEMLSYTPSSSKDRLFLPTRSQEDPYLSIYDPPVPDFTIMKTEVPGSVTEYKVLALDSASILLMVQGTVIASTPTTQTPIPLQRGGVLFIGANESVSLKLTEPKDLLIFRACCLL

[3] = biological target: T2, Tyrosine-protein phosphatase non-receptor type 7 (Homo sapiens, UniProt P35236); experiment: SAR analysis of chemical inhibitors of HePTP using a Fluorescent assay - Set 2. [Related pubchem assays (depositor defined):AID1059, AID1077, AID1661, AID2085, AID521]; format: functional
T2 sequence (P35236 whole entry): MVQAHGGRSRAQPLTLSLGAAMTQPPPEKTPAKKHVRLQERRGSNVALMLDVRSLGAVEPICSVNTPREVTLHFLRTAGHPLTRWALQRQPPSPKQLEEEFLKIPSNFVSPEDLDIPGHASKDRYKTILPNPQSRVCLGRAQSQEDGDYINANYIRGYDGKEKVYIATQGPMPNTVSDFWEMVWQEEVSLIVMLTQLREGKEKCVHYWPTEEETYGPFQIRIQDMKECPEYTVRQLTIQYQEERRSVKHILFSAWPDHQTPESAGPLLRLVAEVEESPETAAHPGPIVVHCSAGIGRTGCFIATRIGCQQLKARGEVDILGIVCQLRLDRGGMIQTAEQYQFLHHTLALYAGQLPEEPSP

[4] = biological target: Dual specificity protein phosphatase 3 (Homo sapiens, UniProt P51452); experiment: SAR VHR1 Fluorescent Assay for In Vitro dose response studies Set 2. [Related pubchem assays (depositor defined):AID1654, AID1661, AID1878]; format: functional
[5] = biological target: T3, Alkaline phosphatase, tissue-nonspecific isozyme (Homo sapiens, UniProt P05186); experiment: TNAP enzyme activators, dose response, selectivity assay for human IAP activator project, biochemical, TNAP isozyme, human IAP uHTS hits (AID 488886); format: functional;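 also: potency of compounds raising TNAP activity as a selectivity check on IAP activators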
T3 sequence (P05186 whole entry): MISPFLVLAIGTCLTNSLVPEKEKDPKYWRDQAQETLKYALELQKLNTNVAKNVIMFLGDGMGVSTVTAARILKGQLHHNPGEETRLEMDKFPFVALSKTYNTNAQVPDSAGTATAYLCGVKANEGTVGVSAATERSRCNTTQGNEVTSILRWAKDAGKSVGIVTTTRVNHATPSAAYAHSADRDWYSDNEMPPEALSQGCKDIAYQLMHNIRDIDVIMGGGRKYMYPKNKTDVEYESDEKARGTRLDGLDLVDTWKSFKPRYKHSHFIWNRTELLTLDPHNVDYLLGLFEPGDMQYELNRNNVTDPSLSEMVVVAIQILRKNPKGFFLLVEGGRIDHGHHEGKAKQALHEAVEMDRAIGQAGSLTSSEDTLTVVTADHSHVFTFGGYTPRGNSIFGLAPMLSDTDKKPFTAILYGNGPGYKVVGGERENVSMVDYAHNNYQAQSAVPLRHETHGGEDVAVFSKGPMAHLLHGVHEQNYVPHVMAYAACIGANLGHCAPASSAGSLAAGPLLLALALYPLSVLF

[6] = biological target: Intestinal-type alkaline phosphatase (Mus musculus, UniProt P24822); experiment: PubChem AID 488874; format: functional
[7] = biological target: T4, Intestinal-type alkaline phosphatase (Homo sapiens, UniProt P09923); experiment: human IAP activators, dose response, biochemical, luminescent, uHTS hits, set 2 (AID 488817); format: functional;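 also: potency of activators that raise enzyme activity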
[8] = biological target: T4, Intestinal-type alkaline phosphatase; experiment: human intestinal alkaline phosphatase activators, dose response, biochemical, luminescence, uHTS hits (AID 463120); format: functional
[9] = biological target: T3, Alkaline phosphatase, tissue-nonspecific isozyme
Coagulation factor XII = biological target: T5, Coagulation factor XII (Homo sapiens, UniProt P00748); experiment: FXIIa inhibitor potency, concentration-response, biochemical (AID 716); format: functional
T5 sequence (P00748 whole entry): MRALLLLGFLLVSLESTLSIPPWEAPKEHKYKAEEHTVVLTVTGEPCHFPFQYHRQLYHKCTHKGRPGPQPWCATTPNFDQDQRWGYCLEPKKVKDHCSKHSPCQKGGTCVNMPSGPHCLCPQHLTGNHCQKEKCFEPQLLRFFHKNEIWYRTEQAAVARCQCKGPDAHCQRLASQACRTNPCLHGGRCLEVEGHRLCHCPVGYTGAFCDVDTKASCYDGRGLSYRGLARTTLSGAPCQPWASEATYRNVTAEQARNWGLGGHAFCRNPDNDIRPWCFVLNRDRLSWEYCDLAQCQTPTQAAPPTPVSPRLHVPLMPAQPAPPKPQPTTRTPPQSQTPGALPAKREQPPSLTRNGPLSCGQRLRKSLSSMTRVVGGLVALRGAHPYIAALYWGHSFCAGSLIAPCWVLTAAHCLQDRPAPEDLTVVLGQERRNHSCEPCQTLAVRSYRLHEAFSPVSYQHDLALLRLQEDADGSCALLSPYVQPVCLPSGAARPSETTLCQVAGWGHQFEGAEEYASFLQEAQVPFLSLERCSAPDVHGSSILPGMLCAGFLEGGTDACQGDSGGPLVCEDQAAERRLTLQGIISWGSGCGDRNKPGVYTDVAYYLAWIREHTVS

T4 sequence (P09923 whole entry): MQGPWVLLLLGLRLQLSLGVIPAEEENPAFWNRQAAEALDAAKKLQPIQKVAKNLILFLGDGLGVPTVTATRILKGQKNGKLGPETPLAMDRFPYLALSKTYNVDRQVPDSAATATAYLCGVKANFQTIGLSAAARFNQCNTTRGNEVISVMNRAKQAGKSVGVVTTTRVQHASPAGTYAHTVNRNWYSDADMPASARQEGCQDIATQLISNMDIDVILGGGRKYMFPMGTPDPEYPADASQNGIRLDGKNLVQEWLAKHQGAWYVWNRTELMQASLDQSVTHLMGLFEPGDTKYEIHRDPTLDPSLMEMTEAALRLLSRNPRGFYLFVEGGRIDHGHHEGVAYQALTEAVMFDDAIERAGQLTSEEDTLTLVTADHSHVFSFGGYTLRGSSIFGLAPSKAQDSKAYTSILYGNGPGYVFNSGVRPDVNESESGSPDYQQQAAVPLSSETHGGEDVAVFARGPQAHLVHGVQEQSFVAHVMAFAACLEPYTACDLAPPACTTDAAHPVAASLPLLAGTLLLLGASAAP
Dual specificity protein phosphatase 3, sequence (P51452 whole entry): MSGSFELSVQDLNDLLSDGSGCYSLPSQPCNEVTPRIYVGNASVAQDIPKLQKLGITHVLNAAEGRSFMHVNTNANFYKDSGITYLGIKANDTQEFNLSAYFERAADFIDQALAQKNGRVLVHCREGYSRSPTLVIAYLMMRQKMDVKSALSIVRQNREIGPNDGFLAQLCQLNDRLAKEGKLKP
Phosphoethanolamine/phosphocholine phosphatase, sequence (Q8TCT1 whole entry): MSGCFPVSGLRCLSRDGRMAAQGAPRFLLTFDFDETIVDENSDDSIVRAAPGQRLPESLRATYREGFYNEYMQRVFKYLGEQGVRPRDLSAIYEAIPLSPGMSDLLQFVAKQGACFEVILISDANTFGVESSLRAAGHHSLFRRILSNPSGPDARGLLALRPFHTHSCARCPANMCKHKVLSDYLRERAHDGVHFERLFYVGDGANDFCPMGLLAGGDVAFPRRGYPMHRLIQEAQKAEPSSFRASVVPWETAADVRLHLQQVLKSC
Intestinal-type alkaline phosphatase (Mus musculus, UniProt P24822), sequence (P24822 whole entry): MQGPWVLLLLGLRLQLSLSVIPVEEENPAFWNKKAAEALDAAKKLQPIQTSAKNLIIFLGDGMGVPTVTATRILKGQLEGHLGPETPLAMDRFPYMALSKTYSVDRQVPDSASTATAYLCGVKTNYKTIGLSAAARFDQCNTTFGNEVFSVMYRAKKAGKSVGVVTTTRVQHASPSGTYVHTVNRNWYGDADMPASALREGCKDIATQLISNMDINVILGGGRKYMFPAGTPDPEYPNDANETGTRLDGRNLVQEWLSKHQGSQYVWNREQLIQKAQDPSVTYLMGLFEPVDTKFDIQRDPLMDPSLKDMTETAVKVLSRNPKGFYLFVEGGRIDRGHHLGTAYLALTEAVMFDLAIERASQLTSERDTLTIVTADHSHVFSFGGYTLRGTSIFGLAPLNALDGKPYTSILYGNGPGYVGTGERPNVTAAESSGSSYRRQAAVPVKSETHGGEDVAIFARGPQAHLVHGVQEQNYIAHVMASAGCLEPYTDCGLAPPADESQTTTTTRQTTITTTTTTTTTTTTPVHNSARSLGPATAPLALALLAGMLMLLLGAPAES

## O=c1c2c([N+](=O)[O-])cc([N+](=O)[O-])cc2sn1-c1ccc(OC(F)(F)Cl)cc1
[1]
  IC50: 0.233 µM (active)
[2]
  IC50: 2.14 µM (active)

## COc1cc(C(=S)NCc2cccc(F)c2)ccc1O
[3]
  IC50: 23.4 µM (active)
[4]
  IC50: 32.8 µM (active)

## CC(C)C(=O)NC(=S)Nc1ccccc1C(=O)Nc1ccccc1
[5]
  EC50: 10.2 µM (active)
[6]
  IC50: 50 µM (active)
[7]
  EC50: 7.62 µM (active)
[8]
  EC50: 6.41 µM (active)
[9]
  EC50: > 100 µM (not active)

## COCCn1nnnc1C(c1cc2ccc(C)cc2[nH]c1=O)N(Cc1ccco1)Cc1cccs1 (stereo not given)
Coagulation factor XII
  IC50: > 50 µM (inactive)
